Source: publication PMC7586344, “Discovery of Novel pERK1/2- or β-Arrestin-Preferring 5-HT1A Receptor-Biased Agonists: Diversified Therapeutic-like versus Side Effect Profile” (Journal of Medicinal Chemistry, 2020)

Columns and labels:
[1] = Preliminary metabolic stability in rat liver microsomes; assay type: in vitro ADME; conditions: pH 7.4, RLMs 1 mg/mL, 50 μM compound, 37 °C
HepG2 cells = test: Hepatotoxicity, HepG2 cell viability; assay type: cell-based, human; conditions: 72 h incubation
β1 = biological target: T1, β1 (Homo sapiens, UniProt P08588); test: Off-target binding screen; conditions: 1000 nM, read-out: % Inhibition of Control Specific Binding
T1 construct: Eurofins Pharma Discovery Services (contract screen)
T1 sequence (P08588 whole entry): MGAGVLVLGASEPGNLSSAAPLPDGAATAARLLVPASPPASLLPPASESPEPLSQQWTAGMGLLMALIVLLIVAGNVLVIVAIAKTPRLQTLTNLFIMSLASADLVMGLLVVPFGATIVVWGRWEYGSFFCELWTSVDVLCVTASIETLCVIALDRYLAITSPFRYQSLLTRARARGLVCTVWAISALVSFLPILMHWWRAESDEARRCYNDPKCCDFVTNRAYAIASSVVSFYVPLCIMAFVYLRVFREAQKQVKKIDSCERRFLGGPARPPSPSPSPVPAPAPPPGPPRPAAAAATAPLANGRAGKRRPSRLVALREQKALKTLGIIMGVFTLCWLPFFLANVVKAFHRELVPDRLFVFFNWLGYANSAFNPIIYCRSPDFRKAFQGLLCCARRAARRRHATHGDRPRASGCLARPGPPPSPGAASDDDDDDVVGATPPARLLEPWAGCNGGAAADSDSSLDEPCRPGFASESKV

H1 = biological target: T2, H1 (Homo sapiens, UniProt P35367); test: Off-target binding screen; conditions: 1000 nM, read-out: % Inhibition of Control Specific Binding
T2 construct: Eurofins Pharma Discovery Services (contract assay)
T2 sequence (P35367 whole entry): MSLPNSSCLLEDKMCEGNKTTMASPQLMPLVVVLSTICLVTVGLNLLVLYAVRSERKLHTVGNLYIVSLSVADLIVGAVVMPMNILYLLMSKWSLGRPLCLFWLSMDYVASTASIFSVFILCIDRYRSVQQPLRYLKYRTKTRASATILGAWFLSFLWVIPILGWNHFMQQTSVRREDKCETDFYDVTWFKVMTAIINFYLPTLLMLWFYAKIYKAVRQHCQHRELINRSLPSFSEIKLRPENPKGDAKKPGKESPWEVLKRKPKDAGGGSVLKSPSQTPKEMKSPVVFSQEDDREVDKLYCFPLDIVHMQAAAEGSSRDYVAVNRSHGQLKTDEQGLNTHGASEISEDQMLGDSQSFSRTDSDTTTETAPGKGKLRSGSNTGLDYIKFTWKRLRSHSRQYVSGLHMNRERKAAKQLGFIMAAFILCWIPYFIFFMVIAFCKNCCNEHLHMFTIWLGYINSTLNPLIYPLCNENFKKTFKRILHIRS

male Wistar rats [2] = test: Porsolt forced swimming test; assay type: in vivo; conditions: rat FST, 60 min before test, mean ± SEM
Protocol: The experiments were performed on male Wistar rats (170–200 g) obtained from an accredited animal facility at the Jagiellonian University Medical College, Krakow, Poland. […] Standard laboratory food (LSM-B) and filtered water were freely available. […] Each animal was assigned randomly to treatment groups and only used once (no repeated use of animals). All the experiments were performed by two observers unaware of the treatment applied between 9:00 and 14:00 on separate groups of animals. […] All efforts were made to minimize suffering and to reduce the number of animals used in the experiments and to use only the number of animals necessary to produce reliable scientific data. Each experimental group consisted of 6–8 animals. […] The examined compounds were administered orally 60 min before tests. In antagonism experiments, WAY100635 (Tocris, UK) was administered subcutaneously 75 min before testing. Control animals received vehicle (distilled water) according to the same schedule. […] On the following day (24 h later), the rats were re-placed in the cylinder after administration of test compounds and the total duration of immobility was recorded during the 5-min test period. […] Fresh water was used for each animal.

male Wistar rats [3] = test: Lower lip retraction; assay type: in vivo; conditions: rat; for LLR score: 50 min before test, score 0-10; for ability to induce lower lip retraction (LLR), in words: p.o.
Protocol: The experiments were performed on male Wistar rats (170–200 g) obtained from an accredited animal facility at the Jagiellonian University Medical College, Krakow, Poland. […] All efforts were made to minimize suffering and to reduce the number of animals used in the experiments and to use only the number of animals necessary to produce reliable scientific data. Each experimental group consisted of 6–8 animals.
The examined compounds were administered orally 60 min before tests. In antagonism experiments, WAY100635 (Tocris, UK) was administered subcutaneously 75 min before testing. Control animals received vehicle (distilled water) according to the same schedule.
Observations were made according to the method described by Kleven et al.([68]) Animals were observed individually during a 10 min period for 10 s of observation per animal. During each of these observation periods, the uninterrupted presence for at least 3 s (1) or absence (0) of LLR was recorded. This cycle was repeated 10 times over a 10 min period; thus, the incidence of a particular behavior could vary from 0 to 10.

[4] = In vitro rat plasma protein binding (ultrafiltration); assay type: in vitro ADME; conditions: rat serum; for fraction unbound at 30 min, 3 µg/mL / fraction unbound at 30 min, 30 µg/mL: male, Wistar, read-out: PPB ± SD (converted)
Protocol: Fresh blood was harvested from male adult Wistar rats that were sacrificed by exsanguination. The blood was allowed to clot for 20 min at room temperature and then centrifuged at 3000 rpm for 10 min (Universal 32, Hettich, Germany). 56 and 44 dissolved in water were added in volume of 10 μL to separate glass tubes containing 1 mL aliquots of rat serum to achieve final concentrations of 3 and 30 μg/mL each. All tests were run in triplicate. After vortexing, the serum samples were incubated in a water bath at 37 °C for 30 min with gentle shaking. Following this incubation period, 100 μL of serum samples from each tube were transferred to Eppendorf tubes and frozen at −80 °C for analysis. The remaining serum was transferred into Centrifree ultrafiltration devices with Ultracel regenerated cellulose membrane (Merck, Darmstadt, Germany) and centrifuged at 1000g for 15 min (EBA III centrifuge, Hettich, Germany). The collected ultrafiltrates were frozen (−80 °C) for further analysis.

panel of 45 off-targets = conditions: highest off-target affinity, estimated from screening data

Row | SMILES | remaining at 2 h, 50 μM [1] | hepatotoxicity 50% viability of HepG2 cells (HepG2 cells) | inhibition at 1 µM (β1) | inhibition at 1 µM (H1) | Immobility time (male Wistar rats [2]; 0.04 mg/kg p.o.) | LLR score (male Wistar rats [3]; 0.04 mg/kg p.o.) | ability to induce lower lip retraction (LLR), in words (male Wistar rats [3]) | fu ± SD ([4]; C0 3 µg/mL) | fu ± SD ([4]; C0 30 µg/mL) | fraction unbound at 30 min, 3 µg/mL ([4]; C0 3 µg/mL) | fraction unbound at 30 min, 30 µg/mL ([4]; C0 30 µg/mL) | Immobility time (male Wistar rats [2]; 1.25 mg/kg p.o.) | LLR score (male Wistar rats [3]; 0.312 mg/kg p.o.) | LLR score (male Wistar rats [3]; 1.25 mg/kg p.o.) | affinity for some of the off-targets (pKi) (panel of 45 off-targets)
1 | O=C(c1ccc(F)c(Cl)c1)N1CCC(F)(CNCCOc2ccccc2)CC1 [Compound 3] | 59.2% | >50 µM | -8% | -9% | – | – | – | – | – | – | – | – | – | – | –
2 | CNc1ccccc1OCCNCC1(F)CCN(C(=O)c2ccc(F)c(Cl)c2)CC1 [Compound 44, (3-Chloro-4-fluorophenyl)(4-fluoro-4-(((2-(2-(methylamino)phenoxy)ethyl)amino)methyl)piperidin-1-yl)methanone] | – | – | -5% | -5% | 199.50 ± 12.35 s | 0 | did not induce any significant LLR | 1.6 ± 0.1% | 1.8 ± 0.1% | 0.016 | 0.018 | – | – | – | –
3 | O=C(c1ccc(F)c(Cl)c1)N1CCC(F)(CNCCOc2cccc3[nH]ccc23)CC1 [Compound 56, (4-(((2-((1H-Indol-4-yl)oxy)ethyl)amino)methyl)-4-fluoropiperidin-1-yl)(3-chloro-4-fluorophenyl)methanone] | 87.4% | >50 µM | – | – | – | – | elicited a full LLR | 1.1 ± 0.1% | 1.9 ± 0.1% | 0.011 | 0.019 | 67.63 ± 7.83 s | 10 ± 0 | 10 ± 0 | ~8
